We go through 9 compounds from paper PMC8883597 (Xenobiotica; the fate of foreign compounds in biological …, 2021).

The conditions of data set [1]: male, Sprague Dawley, rat, in vivo, iv, 2.25 mg/kg.
Data set [2] is described as follows: Toxicokinetics in plasma after a single gavage administration. As to conditions: male rats.
The conditions of data set [3]: rat, in vivo.
For data set [4] the following is noted: rat, in vivo, 10 mg/kg; cited from earlier work.
For data set [5] the following is noted: male, Sprague Dawley, rat, in vivo.
In a further data set the test system is rats. As to conditions: ref Hirata-Koizumi et al., 2008b, cited from earlier work.
Setting [6] is: male, Sprague Dawley, po, 30 mg/kg.
Setting [7] is: male, Sprague Dawley, po, 300 mg/kg.
[8] abbreviates: male, Sprague Dawley, 300 mg/kg.

SMILES strings stand for the structures. Where two headings read alike, the source gives them in different places. A value given as a limit tells only on which side of the number the result lay.

As usually defined, the AUC is concentration integrated over time. Read a low AUC as less exposure. For orientation: Cmax means the peak of the concentration-time curve. As usually defined, the Tmax is the time at which the peak concentration occurs.

Take `CC(C)(C)CC(C)(C)c1ccc(O)c(-n2nc3ccccc3n2)c1` [Octrizole, 2-(2H-Benzotriazol-2-yl)-4-(1,1,3,3-tetramethylbutyl)phenol]: in data set [1], the AUC worked out at 3510 ± 440 ng·h/mL, the Cmax amounted to 20600 ± 7800 ng/mL and the “Half-life (gamma half-life)” value came out at 15.4 ± 2.4 h. Further, the “time points where plasma concentrations were below LOD” value in data set [2] (single gavage 300 mg/kg group) was found to be 0.0333 h. In data set [3] (setting [6]), the AUC was 5980 ± 1950 ng·h/mL, the Cmax is on record as 561 ± 170 ng/mL, the “Half-life (beta half-life)” value is listed as 56.8 ± 233 h and the Tmax stood at 3.71 ± 1.08 h. Further, in data set [3] (setting [7]), the AUC was 30000 ± 7400 ng·h/mL, the Cmax worked out at 3590 ± 850 ng/mL and the “Half-life (beta half-life)” value was 21.4 ± 18.2 h.
Regarding `CC(C)(C)c1cc(CCC(=O)OCCCCCCOC(=O)CCc2cc(-n3nc4ccccc4n3)c(O)c(C(C)(C)C)c2)cc(-n2nc3ccccc3n2)c1O` [tBuPrHexEst-BZT, 3-(2H-benzotriazol-2-yl)-5-(1,1-dimethylethyl)-4-hydroxybenzenepropanoic acid, 1,6-hexanediyl ester], in data set [4], the “Tmax (time at which Cmax was achieved)” value is 1 to 2 h, the apparent half-life was ~ 12 h and the “maximum blood concentration (Cmax)” value was under 0.13 µg/g.
Regarding `CC(C)(C)c1ccc(O)c(-n2nc3ccccc3n2)c1` [tBu-BZT, 2-(2H-Benzotriazol-2-yl)-4-tert-butylphenol], the “increase in AUC with a 10-fold increase in the dose” value in data set [2] (gavage 30 to 300 mg/kg) is recorded as “dose-proportional”.
In the case of `Cc1cc(-n2nc3ccc(Cl)cc3n2)c(O)c(C(C)(C)C)c1` [Bumetrizole, 2-(5-chloro-2H-1,2,3-benzotriazol-2-yl)-6-(1,1-dimethylethyl)-4-methylphenol], the “time points where plasma concentrations were below LOD” value in data set [3] (male, Sprague Dawley, 30 mg/kg) is on record as 0.0333 h. Also, in data set [3] (setting [6]), the AUC is 21000 ± 5300 ng·h/mL, the Cmax is recorded as 2020 ± 490 ng/mL, the “Half-life (beta half-life)” value worked out at 48.4 ± 116 h and the Tmax was found to be 3.08 ± 0.77 h. In addition, in data set [3] (setting [7]), the AUC came out at 41600 ± 11600 ng·h/mL, the Cmax came to 2450 ± 710 ng/mL, the “Half-life (beta half-life)” value is recorded as 37.5 ± 401 h and the Tmax was 5.06 ± 1.24 h.
`COC(=O)CCc1cc(-n2nc3ccccc3n2)c(O)c(C(C)(C)C)c1` [tBuPrMeEst-BZT, 3-(2H-benzotriazol-2-yl)-5-(1,1-dimethylethyl)-4-hydroxybenzenepropanoic acid, methyl ester]: in data set [4], the “Tmax (time at which Cmax was achieved)” value was 1 to 2 h and the “maximum blood concentration (Cmax)” value is under 2 µg/g.
Compound `CCC(C)(C)c1cc(-n2nc3ccccc3n2)c(O)c(C(C)(C)CC)c1` [ditPe-BZT, 2-(2H-Benzotriazol-2-yl)-4,6-bis(1,1-dimethylpropyl)phenol] came in with an Oral bioavailability in data set [5] (300 mg/kg) of 5.53%. Also, in data set [3] (setting [6]), the Tmax came to 2.96 ± 1.10 h. The “Half-life (beta half-life)” value in data set [3] (setting [7]) is on record as 17.1 ± 53.3 h.
On to `CC(C)(C)c1ccc(O)c(-n2nc3ccccc3n2)c1` [ditBu-BZT, 2-(2H-benzotriazol-2-yl)-4-tert-butylphenol], for which the toxicity finding entry in the data set with rats (gavage 0.1–12.5 mg/kg for 13 and 52 weeks) is “enlarged livers accompanied by histopathological changes”. In the data set on rats (highest dose), the “toxicity finding at the highest dose” value was “Increased relative organ weights (e.g., brain and testes) and hematological effects”.
Consider `Cc1ccc(O)c(-n2nc3ccccc3n2)c1` [Drometrizole, 2-(2H-Benzotriazol-2-yl)-4-methylphenol], for which the “Half-life (beta half-life)” value in data set [3] (male, Sprague Dawley, 30 mg/kg) came to 1120 ± 5780 h. For the same compound, in data set [3] (setting [6]), the Cmax amounted to 138 ± 1900 ng/mL and the Tmax was determined as 0.0196 ± 24.6 h. Moreover, in data set [3] (setting [7]), the AUC was found to be 29800 ± 14700 ng·h/mL, the Cmax came to 358 ± 26 ng/mL, the “Half-life (beta half-life)” value worked out at 103 ± 72 h and the “plasma elimination half-life (beta half-life)” value was 103 to 1120 h.
As for `CCCCCCCCOC(=O)CCc1cc(-n2nc3ccccc3n2)c(O)c(C(C)(C)C)c1` [tBuPrOcEst-BZT, 3-(2H-Benzotriazol-2-yl)-5-(1,1-dimethylethyl)-4-hydroxybenzenepropanoic acid, octyl ester], the Oral bioavailability in data set [5] (30 mg/kg) was determined as 23.0%. The same compound showed an Oral bioavailability in data set [5] (300 mg/kg) of 16.0%. Further, in data set [1], the AUC is 13800 ± 300 ng·h/mL, the Cmax was determined as 22400 ± 900 ng/mL and the “Half-life (gamma half-life)” value amounted to 19.2 ± 1.1 h. For the same compound, in data set [3] (male, Sprague Dawley, 30 mg/kg), the AUC was found to be 42300 ± 11500 ng·h/mL, the Cmax is on record as 12800 ± 3100 ng/mL, the “Half-life (beta half-life)” value is recorded as 9.53 ± 1.73 h and the Tmax came out at 1.07 ± 0.30 h. Further, in data set [3] (setting [8]), the AUC is 294000 ± 85000 ng·h/mL, the Cmax was 47800 ± 13500 ng/mL, the “Half-life (beta half-life)” value is 13.6 ± 6.4 h and the Tmax came to 1.91 ± 0.56 h. For the same compound, in data set [3] (setting [7]), the highest concentration (Cmax) fell in the range of 12800 to 47800 ng/mL, the Tmax was in the range of 1.07 to 1.91 h and the “plasma elimination half-life (beta half-life)” value lay in the range of 9.53 to 13.6 h. For the same compound, in data set [3] (po), the “concentration of the parent in plasma” value is “mostly below LOD”.
